Drawing on ChEMBL document CHEMBL1240362, “Intrapulmonary pharmacokinetics of S-013420, a novel bicyclolide antibacterial, in healthy Japanese subjects” (Antimicrob Agents Chemother, 2010), this text covers MIC90 for three compounds.

≈ marks a conversion by molar mass, not a printed value.

Common to all, as to type: functional
The subject of one test is Haemophilus influenzae. Briefly: Antimicrobial activity against Haemophilus influenzae.
For a further test, the system named is Streptococcus pneumoniae. The experiment in a line: Antimicrobial activity against Streptococcus pneumoniae.
The subject of the next test is Staphylococcus aureus. The experiment in a line: Antimicrobial activity against methicillin susceptible Staphylococcus aureus.
Another test concerns Streptococcus pyogenes. The experiment in a line: Antimicrobial activity against Streptococcus pyogenes.

In the case of `CC[C@H]1OC(=O)[C@H](C)C(=O)[C@H](C)[C@@H](O[C@@H]2O[C@H](C)C[C@H](N(C)C)[C@H]2O)[C@](C)(OC)C[C@@H](C)C(=O)[C@H](C)[C@H]2N(CCCCn3cnc(-c4cccnc4)c3)C(=O)O[C@]12C` [TELITHROMYCIN], in the test with Haemophilus influenzae, the MIC90 worked out at 4 µg/mL (≈ 4.93 µM).

On to `CC[C@H]1OC(=O)[C@H](C)[C@@H](O[C@H]2C[C@@](C)(OC)[C@@H](O)[C@H](C)O2)[C@H](C)[C@@H](O[C@@H]2O[C@H](C)C[C@H](N(C)C)[C@H]2O)[C@](C)(OC)C[C@@H](C)C(=O)[C@H](C)[C@@H](O)[C@]1(C)O` [CLARITHROMYCIN], for which the MIC90 with Streptococcus pneumoniae (Streptococcus pneumoniae, read-out: MIC90) was 1 µg/mL (≈ 1.34 µM); in the test on Staphylococcus aureus, 1 µg/mL (≈ 1.34 µM); with Streptococcus pyogenes, 1 µg/mL (≈ 1.34 µM).

As for `CC[C@H]1OC(=O)[C@H](C)[C@@H](O[C@H]2C[C@@](C)(OC)[C@@H](O)[C@H](C)O2)[C@H](C)[C@@H](O[C@@H]2O[C@H](C)C[C@H](N(C)C)[C@H]2O)[C@](C)(O)C[C@@H](C)CN(C)[C@H](C)[C@@H](O)[C@]1(C)O` [AZITHROMYCIN], the MIC90 against Streptococcus pneumoniae, with Staphylococcus aureus and in the test with Streptococcus pyogenes was 1 µg/mL (≈ 1.34 µM) throughout.
